Data reported in patent US7468359B2, “Compositions comprising oxophosphonate-based metalloproteinase inhibitors” (Yissum Research Develpment Company of the Hebrew University …, priority 1999, dated 2008).
Like-named read-outs stand apart in the source and are kept apart here.

Key:
[1] = test system: cancer cells; experiment: Matrigel chemoinvasion assay in Boyden chambers; assay type: cell-based; conditions: for inhibition at 50 µM: read-out: % Inhibition of Chemoinvasion 50 uM
[2] = test system: Endothelial cells; experiment: Endothelial cell tube formation (capillary formation); assay type: cell-based
[3] = test system: murine melanoma; experiment: Metastasis formation in the murine melanoma model; assay type: in vivo, mice; conditions: 50 mg/kg daily injections for 21 d, lung tumors counted, vs untreated animals
[4] = target: T1, MMP2 (Homo sapiens, UniProt P08253); experiment: Activity on pure MMP2 enzyme; assay type: biochemical
T1 sequence (P08253 110-660): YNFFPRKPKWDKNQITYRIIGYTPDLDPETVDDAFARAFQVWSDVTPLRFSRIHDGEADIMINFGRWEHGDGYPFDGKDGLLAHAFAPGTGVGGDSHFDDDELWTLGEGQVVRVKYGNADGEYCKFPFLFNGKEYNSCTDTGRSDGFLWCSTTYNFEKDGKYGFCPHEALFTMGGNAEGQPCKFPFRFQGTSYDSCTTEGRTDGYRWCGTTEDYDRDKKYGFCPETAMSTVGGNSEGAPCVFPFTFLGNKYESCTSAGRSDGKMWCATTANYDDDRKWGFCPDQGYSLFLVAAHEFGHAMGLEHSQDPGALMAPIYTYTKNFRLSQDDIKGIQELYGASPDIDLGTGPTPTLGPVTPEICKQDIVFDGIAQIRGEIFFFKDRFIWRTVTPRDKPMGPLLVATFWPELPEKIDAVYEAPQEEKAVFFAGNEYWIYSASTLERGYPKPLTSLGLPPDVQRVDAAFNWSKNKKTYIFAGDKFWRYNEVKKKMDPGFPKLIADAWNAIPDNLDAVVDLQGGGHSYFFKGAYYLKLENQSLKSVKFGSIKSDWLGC

O=C(NCCc1ccccc1)P(=O)([O-])O.[Na+] [Compound 17]
Activity ([1]; preliminary screening, invasion/chemotaxis chambers vs untreated preparations): + (active at 100 μM)

CNC(=O)[C@@H](NC(=O)[C@H](CC(C)C)NC(=O)P(=O)(O)O)C(C)C [Example 18, Phosphonoformyl-Leu-Val-NHMe]
% Inhibition of Chemoinvasion 50 uM ([1]; 50 uM): 38%
% Inhibition of Capillary Formation 50 UM [2]: 42%

CCC(=O)P(=O)([O-])O.[Na+] [Compound 10]
Activity [1]: + (key: ++++: active at submicromolar concen-tration; +++: active at 1-10 μM; ++: active at 50-100 μM; +: active at 100 μM; −: not active at 100 μM)

CCCCNC(=O)P(=O)([O-])O.[Na+] [Compound 23]
Activity [1]: + (key: ++++: active at submicromolar concen-tration; +++: active at 1-10 μM; ++: active at 50-100 μM; +: active at 100 μM; −: not active at 100 μM)

COP(=O)([O-])C(=O)Cc1ccccc1.[Na+] [Compound 13]
Activity [1]: ++ (key: ++++: active at submicromolar concen-tration; +++: active at 1-10 μM; ++: active at 50-100 μM; +: active at 100 μM; −: not active at 100 μM)

O=C(NC1CCCCC1)P(=O)(O)O [Compound 33]
Activity [1]: ++++ (key: ++++: active at submicromolar concen-tration; +++: active at 1-10 μM; ++: active at 50-100 μM; +: active at 100 μM; −: not active at 100 μM)

CNC(=O)C(NC(=O)C(Cc1ccccc1)NC(=O)P(=O)(O)O)C(C)C (stereo not drawn) [Example 21, Phosphonoformyl-Phe-Val-CONHMe]
% Inhibition of Chemoinvasion 50 uM ([1]; 50 uM): 41%

CCC(=NO)P(=O)([O-])OC.[Li+] [Compound 14]
Activity [1]: + (key: ++++: active at submicromolar concen-tration; +++: active at 1-10 μM; ++: active at 50-100 μM; +: active at 100 μM; −: not active at 100 μM)

CNC(=O)[C@H](Cc1ccc(OC)cc1)NC(=O)[C@H](CC(C)C)NC(=O)P(=O)(O)O [Example 20, Phosphonoformyl-Leu-Tyr(Me)-NHMe]
% Inhibition of Chemoinvasion 50 uM ([1]; 50 uM): 39%
% Inhibition of Capillary Formation 50 UM [2]: 38%
% Inhibition of Metastasis Formation 50 mg/kg for 21 d [3]: 75%

O=C(NCCN1CCCC1)P(=O)(O)O [Example 9, N-(2-[1-pyrrolidino]ethyl)phosphonoformamide Betaine]
concentration at which active in the Boyden chamber chemoinvasion assay [1]: 100 µM

CCOC([O-])[PH](=O)C(=O)N(C)O.[Na+] (stereo not shown) [Compound 1]
Activity [1]: ++ (key: ++++: active at submicromolar concen-tration; +++: active at 1-10 μM; ++: active at 50-100 μM; +: active at 100 μM; −: not active at 100 μM)

O=C(NC1CCCCC1)P(=O)(O)O [Example 5, Hydrogen Sodium N-cyclohexylcarbamoylphosphonate]
concentration at which active in the Boyden chamber chemoinvasion assay [1]: 1 µM
IC50 [4]: 80 nM

O=C(c1ccc(Cl)cc1)P(=O)([O-])[O-].[Na+].[Na+] [Compound 8, p-chlorobenzoylphosphonic acid sodium salt]
Activity [1]: +++ (key: ++++: active at submicromolar concen-tration; +++: active at 1-10 μM; ++: active at 50-100 μM; +: active at 100 μM; −: not active at 100 μM)
MMP inhibiting activity [1]: considerable MMP inhibiting activity

O=C(NCc1ccccc1)P(=O)([O-])O.[Na+] [Compound 16]
Activity [1]: ++ (key: ++++: active at submicromolar concen-tration; +++: active at 1-10 μM; ++: active at 50-100 μM; +: active at 100 μM; −: not active at 100 μM)

CC(=O)NCCNC(=O)P(=O)(O)O [Example 10, N-(2-acetamidoethyl)phosphonoformamide]
concentration at which active in the Boyden chamber chemoinvasion assay [1]: 100 µM

CNC(=O)[C@H](Cc1ccccc1)NC(=O)[C@H](CC(C)C)[C@H](CSc1cccs1)C(=O)NO [Batimastat, reference compound]
inhibition at 50 µM [1]: 40%

O=C(NC1CCCC1)P(=O)(O)O [Example 16, N-cyclopentylcarbamoylphosphonic Acid]
% Inhibition of Chemoinvasion 50 uM ([1]; 50 uM): 65%
% Inhibition of Capillary Formation 50 UM [2]: 70%
% Inhibition of Metastasis Formation 50 mg/kg for 21 d [3]: 70%

O=C(OCc1ccccc1)P(=O)([O-])O.[Na+] [Compound 5]
Activity [1]: ++ (key: ++++: active at submicromolar concen-tration; +++: active at 1-10 μM; ++: active at 50-100 μM; +: active at 100 μM; −: not active at 100 μM)

CN(C)CCNC(=O)P(=O)(O)O [Compound 26, N-(2-dimethylaminoethyl)phosphonoformamide Betaine]
Activity [1]: ++++ (key: ++++: active at submicromolar concen-tration; +++: active at 1-10 μM; ++: active at 50-100 μM; +: active at 100 μM; −: not active at 100 μM)
inhibition at 50 µM [1]: 66%
IC50 [4]: 25 nM
inhibition at 50 µM ([2]; Endothelial cell, read-out: % Inhibition of Capillary Formation 50 µM): 75%
% Inhibition of Metastasis Formation 50 mg/kg for 21 d [3]: 73%

O=C(NCCc1c[nH]cn1)P(=O)(O)O [Example 15, Phosphonoformylhistamine]
% Inhibition of Chemoinvasion 50 uM [1]: 15%

O=P([O-])([O-])Cc1ccc(Cl)cc1.[Na+].[Na+] [Compound 38, p-chlorobenzylphosphonic acid sodium salt, reference compound]
Activity [1]: − (key: ++++: active at submicromolar concen-tration; +++: active at 1-10 μM; ++: active at 50-100 μM; +: active at 100 μM; −: not active at 100 μM)
MMP inhibiting activity [1]: completely devoid of inhibitory activity

O=C(NCCN1CCCCC1)P(=O)(O)O [Example 8, N-(2-[1-piperidino]ethyl)phosphonoformamide Betaine]
concentration at which active in the Boyden chamber chemoinvasion assay [1]: 100 µM

O=C(NCCN1CCOCC1)P(=O)(O)O [Example 7, N-(2-[4-morpholino]ethyl)phosphonoformamide Betaine]
concentration at which active in the Boyden chamber chemoinvasion assay [1]: 100 µM

CNC(=O)[C@H](Cc1ccc(OC)cc1)NC(=O)[C@@H](CC(=O)NO)CC(C)C [SC-44463, reference compound]
% Inhibition of Metastasis Formation 50 mg/kg for 21 d [3]: 70-75%

O=C(c1ccccc1)P(=O)([O-])O.[Na+] [Compound 7]
Activity [1]: ++ (key: ++++: active at submicromolar concen-tration; +++: active at 1-10 μM; ++: active at 50-100 μM; +: active at 100 μM; −: not active at 100 μM)

CNC(=O)[C@H](Cc1ccccc1)NC(=O)[C@H](CC(C)C)NC(=O)P(=O)(O)O [Example 19, Phosphonoformyl-Leu-Phe-NHMe]
% Inhibition of Chemoinvasion 50 uM [1]: 55%
% Inhibition of Capillary Formation 50 UM [2]: 60%

O=C(NCCSCc1ccccc1)P(=O)(O)O [Example 17, N-(S-benzylmercaptoethyl)carbamoylphosphonic Acid]
% Inhibition of Chemoinvasion 50 uM ([1]; 50 uM): 61%
% Inhibition of Capillary Formation 50 UM [2]: 58%

O=C(Cc1ccccc1)P(=O)([O-])O.[Na+] [Compound 12]
Activity [1]: + (key: ++++: active at submicromolar concen-tration; +++: active at 1-10 μM; ++: active at 50-100 μM; +: active at 100 μM; −: not active at 100 μM)

CCC(=O)P(=O)([O-])OC.[Na+] [Compound 11]
Activity [1]: + (key: ++++: active at submicromolar concen-tration; +++: active at 1-10 μM; ++: active at 50-100 μM; +: active at 100 μM; −: not active at 100 μM)
